Assay results from patent US20120208781A1, “AMINOGLYCOSIDE DOSING REGIMENS” (Achaogen, Inc., priority 2009, published 2012).
Values after ≈ are worked out from the molar mass of the structure shown. Values joined by “and” are separate entries in the source; they are usually repeats but may differ in a detail not shown here. Equal values may be shown once. Read-outs that look alike come from different tables or passages of the source.

How the values were obtained:
P. aeruginosa (PA) = experiment: MIC, broth microdilution, Brooklyn hospital isolates: P. aeruginosa; format: cell-based; conditions: Pseudomonas aeruginosa; PA (n = 33)
Method: (§1) In another study, the activity of Compound 1 against a collection of contemporary Gram-negative bacteria was determined. Unique patient isolates of P. aeruginosa (PA), A. baumannii (AB), K. pneumoniae (KP), E. coli (EC), and Enterobacter spp. (EB) from prior surveys at 16 Brooklyn, N.Y. hospitals were selected based on resistance patterns. The majority of isolates were fingerprinted by automated ribotyping. MICs were performed by broth microdilution. PCR was used to identify aminoglycoside-modifying enzymes (AMEs) in AB and KP and the KPC gene in Enterobacteriaceae (EN). The expression of the efflux genes mexA, C, E and X in PA, and adeB in AB was assessed by real-time RT-PCR.

[1] = GLP 14-day repeat-dose safety study in rat; format: in vivo
Text: The Food and Drug Administration (FDA) has provided general guidance for estimating the maximum recommended starting dose (MRSD) for initial human clinical trials. The guidance states that the MRSD must be derived from the no observable adverse effect level (NOAEL) obtained in Good Laboratory Practice (GLP) nonclinical animal safety studies. The NOAEL for Compound 1 has been determined in GLP 14-day repeat-dose safety studies in both rat and dog. Estimation of the human equivalent dose (HED) at the NOAEL is based on both a surface area conversion factor (SACF) and the data from these studies. Based on this standard methodology, the HED for the predicted NOAEL in each species has been determined and is presented in Table 18.

[2] = Guinea pig toxicokinetics of Compound 1; format: in vivo, guinea pigs
Method: Additionally, four groups of four male and four female animals were utilized for toxicokinetic (TK) sampling and received the control or test article in the same manner as the main study groups at respective dose levels of 0 (Vehicle Control), 8, 30, or 80 mg/kg.
Physical examinations were conducted pretest on all animals and prior to study termination for main study animals. […] Blood samples for determination of the plasma concentrations of the test article were collected from TK animals at designated time points on Day 1 and Day 14. After blood collection, the TK animals were euthanized and the carcasses were discarded.

Enterobacteriaceae (EN) = experiment: MIC, broth microdilution, Brooklyn hospital isolates: Enterobacteriaceae subsets (amikacin-resistant, KPC+); format: cell-based
Method: as §1

[3] = Plasma protein binding by equilibrium dialysis; format: in vitro ADME
Method: Bioanalytical data analyses were carried out using Analyst software (version 1.4.1, Applied Biosystems, Toronto, ON, Canada). […] PK parameters were determined by noncompartmental analysis using WinNonLin. Plasma protein binding was determined using equilibrium dialysis. In vitro stability was determined using commercially available plasma, microsomes and hepatocytes.

[4] = tested on: coagulase-negative staphylococci (CoNS); experiment: MIC, CLSI broth microdilution, worldwide isolates: coagulase-negative staphylococci; format: cell-based
Text: (§2) In the first study, a total of 235 isolates were collected from medical centers worldwide and tested for susceptibility to Compound 1 and comparator agents by CLSI broth microdilution methods. […] Non-ENT GN pathogens included WT P. aeruginosa (PSA) and Acinetobacter spp. (ACB), and carbapenem (CARB)-R strains, including those with MBL and OXA enzymes, SA and coagulase-negative staphylococci (CoNS) included oxacillin-susceptible (MSSA/MS-CoNS) and —R (MRSA/MR-CoNS) strains.
(§3) Minimum inhibitory concentrations (MIC) were determined by reference Clinical and Laboratory Standards Institute (CLSI) broth microdilution methods per M7-A7 [2006]. Briefly, serial two-fold dilutions of Compound 1 and comparator AGs (together, “the test compounds”) were prepared at 2× concentration in appropriate diluent. The dilutions were mixed in 96-well assay plates with bacterial inoculum. Bacteria were suspended in sterile saline and added to each assay plate to obtain a final concentration of 5.5×10^5 CFU/mL. The plates were incubated at 35° C. for 20 hours in ambient air. […] After incubation, assay plates were read using a microtiter plate reader at 600 nm.

[5] = Phase 1 study 15 mg/kg/day once daily for five days: safety, BUN and Cr; format: in vivo, human; conditions: healthy subjects
Method: An additional randomized, double-blind, placebo-controlled study was performed to assess the safety and pharmacokinetics of Compound 1 following IV administration to healthy adult volunteers according to a high dose, short course regimen of 15 mg/kg/day of Compound 1 administered once daily for five days. Compound 1 was formulated as a sterile solution at a concentration of 50 mg/mL in 10 mL glass vials for intravenous (IV) administration (“Compound 1 Injection”). Eight healthy subjects were randomized to receive either Compound 1 Injection or placebo administered IV by 10 minute infusion daily for five days. Seven subjects received 5 doses and one received 3 doses (early withdrawal for personal reasons).
BUN and creatine (Cr) were assessed daily for each of the five days prior to dosing and at day 5 post-dosing to assess renal function following this high dose, short course regimen.

S. aureus (SA) = experiment: MIC, CLSI broth microdilution, worldwide isolates: S. aureus; format: cell-based
Text: as §2, §3

[6] = 15 mg/kg/day IV once daily for five days, one line per Subject ID, 15 mg/kg/day
[7] = Staphylococcus aureus, SA isolates

In the case of `CN[C@@H]1[C@@H](O)[C@@H](O[C@@H]2[C@@H](O)[C@H](O[C@H]3OC(CNCCO)=CC[C@H]3N)[C@@H](N)C[C@H]2NC(=O)[C@@H](O)CCN)OC[C@]1(C)O` [Compound 1, 6′-(2-Hydroxy-ethyl)-1-(4-amino-2(S)-hydroxy-butyryl)-sisomicin], the MIC50 (P. aeruginosa (PA)) is reported as 8 µg/mL (≈ 13.5 µM), the MIC90 (P. aeruginosa (PA)) is reported as 16 µg/mL (≈ 27 µM) and the HED ([1]; from rat NOAEL, SACF 6.2) is reported as 1.3 mg/kg. For the same compound, the “new toxicities” value ([1]; nonclinical GLP safety studies in rats) was “no new toxicities apart from those already known to the class”, the NOAEL at 14 days ([1]; rat, in vivo) was 8 mg/kg and the “guinea pig AUC relative to average human AUC at proposed clinical dose” value ([2]; 80 mg/kg/day guinea pig vs 15 mg/kg human) was 1.5 ×. The AUC ([2]; both sexes, Crl:HA (Albino Hartley), guinea pig, plasma, subcutaneous, guinea pigs, 80 mg/kg/day) was 370 µg·h/mL, the MIC50 (Enterobacteriaceae (EN)) was 0.5 µg/mL (≈ 0.844 µM) and the MIC90 (Enterobacteriaceae (EN); Amikacin-Resistant-EN (n = 35)) was 2 µg/mL (≈ 3.37 µM). For the same compound, the MIC50 (Enterobacteriaceae (EN); KPC +− EN (n = 24)) was 0.5 µg/mL (≈ 0.844 µM), the MIC90 (Enterobacteriaceae (EN); KPC +− EN (n = 24)) was 4 µg/mL (≈ 6.75 µM) and the fraction unbound [3] was over 0.8. For the same compound, the MIC50 ([4]; CONS isolates) was at most 0.25 µg/mL, the MIC90 ([4]; CONS isolates) was at most 0.25 µg/mL and the “Cumulative % inhibited at Cmpd. MIC ≦0.5” value ([4]; CoNS (20)) was 100.0%. The “severity of adverse events” value ([5]; 15 mg/kg/day IV 10 minute infusion, five days) was “mild to moderate”, the “Serum Creatine, Pre-dose” value ([5]; 15 mg/kg/day IV once daily for five days, fifth pre-dose column, one line per Subject ID, 15 mg/kg/day) was 0.7 mg/dL (2×) and 0.8 mg/dL and 1.2 mg/dL (2×) and 1.1 mg/dL and 1.0 mg/dL and the “BUN, Post-dose 5” value [5, 6] was 13 mg/dL (3×) and 14 mg/dL and 9 mg/dL and 20 mg/dL and 15 mg/dL. For the same compound, the “BUN, Pre-dose 1” value [5, 6] was 9 mg/dL (2×) and 10 mg/dL and 13 mg/dL and 5 mg/dL and 15 mg/dL and 19 mg/dL and 14 mg/dL, the “BUN, Pre-dose 2” value [5, 6] was 18 mg/dL and 16 mg/dL and 19 mg/dL and 17 mg/dL (2×) and 8 mg/dL and 20 mg/dL and 22 mg/dL and the “BUN, Pre-dose 3” value [5, 6] was 13 mg/dL and 18 mg/dL (2×) and 19 mg/dL and 17 mg/dL and 9 mg/dL and 15 mg/dL and 14 mg/dL. The “BUN, Pre-dose 4” value [5, 6] was 13 mg/dL and 14 mg/dL (2×) and 12 mg/dL and 8 mg/dL and 17 mg/dL and 19 mg/dL and 16 mg/dL, the “BUN, Pre-dose 5” value [5, 6] was 16 mg/dL (3×) and 13 mg/dL and 14 mg/dL and 11 mg/dL and 15 mg/dL and the “Serum Creatine, Post-dose 5” value [5, 6] was 0.6 mg/dL (2×) and 1.0 mg/dL and 0.7 mg/dL and 1.1 mg/dL and 0.9 mg/dL (2×). The “Serum Creatine, Pre-dose 1” value [5, 6] was 0.7 mg/dL (2×) and 0.6 mg/dL (2×) and 0.9 mg/dL (2×) and 1.2 mg/dL and 1.0 mg/dL, the “Serum Creatine, Pre-dose 2” value [5, 6] was 0.7 mg/dL and 0.6 mg/dL (2×) and 0.9 mg/dL (2×) and 1.1 mg/dL (2×) and 1.3 mg/dL and the “Serum Creatine, Pre-dose 3” value [5, 6] was 0.6 mg/dL (3×) and 0.7 mg/dL and 1.0 mg/dL and 1.1 mg/dL and 0.9 mg/dL and 0.8 mg/dL. The “Serum Creatine, Pre-dose 4” value [5, 6] was 0.6 mg/dL (4×) and 1.0 mg/dL and 1.2 mg/dL and 0.9 mg/dL (2×), the “changes in BUN or Cr at day 5 post-dosing” value ([5]; 15 mg/kg/day IV, five days) was “no substantial changes in either BUN or Cr” and the tolerability ([5]; 15 mg/kg/day IV, five days) was “well-tolerated”. For the same compound, the ototoxicity or nephrotoxicity ([5]; 15 mg/kg/day IV, five days, through the treatment period) was “No evidence of ototoxicity or nephrotoxicity”, the “Cumulative % inhibited at Cmpd. MIC 1” value (S. aureus (SA); SA (30)) was 96.7% and the “Cumulative % inhibited at Cmpd. MIC 2” value (S. aureus (SA); SA (30)) was 100.0%. The “Cumulative % inhibited at Cmpd. MIC ≦0.5” value (S. aureus (SA); SA (30)) was 66.7%, the “Cumulative % inhibited at Cmpd. MIC 1” value (S. aureus (SA); SA, MRSA (20)) was 100.0% and the “Cumulative % inhibited at Cmpd. MIC ≦0.5” value (S. aureus (SA); SA, MRSA (20)) was 60.0%. The “Cumulative % inhibited at Cmpd. MIC 1” value (S. aureus (SA); SA, MSSA (10)) was 90.0%, the “Cumulative % inhibited at Cmpd. MIC 2” value (S. aureus (SA); SA, MSSA (10)) was 100.0% and the “Cumulative % inhibited at Cmpd. MIC ≦0.5” value (S. aureus (SA); SA, MSSA (10)) was 80.0%. For the same compound, the MIC50 (S. aureus (SA); [7]) was at most 0.25 µg/mL and the MIC90 (S. aureus (SA); [7]) was 0.5 µg/mL (≈ 0.844 µM).
